Assay results from patent publication US20260315499A1, “2'- {HETEROCYCLYL (ARYL/ALKYL) METHYL} - CANNABIDIOL COMPOUNDS AND PROCESS FOR PREPARATION THEREOF” (COUNCIL OF SCIENTIFIC & INDUSTRIAL RESEARCH, priority 2023, published 2026).

Assays:
[1] = system: p TrkB 816; assay: Survival pathway protein expression by western blotting in SHSY5Y; type: cell-based, human; settings: for Relative Protein Expression p TrkB 816: A1 + Cort.
[2] = system: differentiated human neuroblastoma cell line SHSY5Y; assay: In vitro neuroprotection against corticosterone, differentiated SHSY5Y, 48 hrs; type: cell-based
Protocol: (§1) Human neuroblastoma cells (SHSY5Y) and mouse neuroblastoma cells (N2A) were procured from American Type Culture Collection (ATCC). SHSY5Y cell cultures were maintained in DMEM F12 (Invitrogen) whereas N2A were cultured in DMEM (Invitrogen) with 10% Fetal Bovine Serum (Gibco) medium, subjected to differentiation to acquire neuronal morphology (employing differentiation media DMEM-F12, 3-5% FBS, (For differentiation, low concentration of FBS was used) and 50 μM retinoic acid). Differentiated cells were later seeded into 96 well plates, at a density of 1×10^4 before being incubated for 48 hrs with the synthesized library. The exhausted culture media was substituted with new culture media containing 0.5 mg/ml MTT dye. Eventually, the OD at 490 nm excitation was measured using a 96-well plate reader. The proportion of viable cells was determined as percentage of absorbance of untreated cultures relative to control.
(§2) In the next attempt, the neuroprotective properties of the generated library (20 μM, 48 hrs) were assessed employing differentiated human neuroblastoma cell line SHSY5Y and mouse neuroblastoma cell line N2A (Biomol Ther., 2022, 30(6), 570-575). The cells were assaulted with the neurotoxic corticosterone (Cort, 400 μM) for 24 hrs after the overnight preincubation of cells with test molecules as a selection criterion. […]

[3] = system: mouse neuroblastoma cell line N2A; assay: In vitro neuroprotection against corticosterone, differentiated N2A, 48 hrs; type: cell-based; settings: test compound 20 μM + Cort. 400 μM, read-out: % Cell viability ± SD, N2A
Protocol: as §1, §2

[4] = system: nitric oxide (NO) production in RAW264.7 macrophages; assay: In vitro anti-inflammatory activity: nitric oxide production (Griess) in LPS-exposed RAW264.7 macrophages; type: cell-based, mouse; settings: Mus musculus, RAW264.7, LPS 24 hrs, read-out: % NO Inhibition ± SD
Protocol: Measurement of Nitric oxide: RAW264.7 macrophages were seeded in 96-well plates with a density of 0.5×10^5 cells/well and incubated overnight at 37° C. in a 5% CO2 atmosphere. The cells were treated with different concentration of CBD and its analogues and exposed to LPS for 24 hrs. For nitric oxide (NO) determination, the cell culture supernatant was taken and mixed with equal volume of Griess reagent in another 96 well plate at room temperature (Biomed Pharmacother., 2017, 92, 175-186). The absorbance was measured at 540 nm. The final calculations were determined on a NaNO2 standard curve.

[5] = Cell viability assay in differentiated neuronal cells (MTT), N2A; type: cell-based; settings: mouse, read-out: % Cell viability ± SD, N2A
Description: In the present disclosure outlined herein, a focused library of cannabidiol analogues were studied for possible neuro-protective potential employing cell line-based stress model systems which mimic the biological stress conditions in vitro (J Cell Biochem., 2018, 119(8), 6482-6491).
as §1

[6] = system: differentiated SHSY5Y cell cultures; assay: Neuroprotective potential in differentiated SHSY5Y after 96 hrs, concentration series with and without corticosterone; type: cell-based, human
Description: Furthermore, A1 intervention in presence of corticosterone evidenced neuroprotective effect against corticosterone induced impairment and cell death.

[7] = system: p TrkB 816; assay: Survival pathway protein expression by western blotting in SHSY5Y; type: cell-based, human
Protocol: (§3) Here, A1 was tested to find its role in eliciting survival pathway proteins in differentiated human neuroblastoma cells in concentration and time dependent manner.
(§4) To investigate the effect of A1 on the survival proteins, SHSY5Y cell cultures were treated with different concentrations for 6 hrs and analyzed for the expression of survival proteins, including p-Erk 44/42, p-AKT 473, Anti BDNF, and p TrkB 816 and p TrKB 515 by western blotting.

[8] = system: p TrkB 515; assay: as above; type: cell-based, human
Protocol: as §3, §4

[9] = system: Anti BDNF; assay: as above; type: cell-based, human
Protocol: as §3, §4

[10] = system: p-Erk 44/42; assay: as above; type: cell-based, human; settings: for Relative Protein Expression p ERK 44/42: 6 hrs
Protocol: as §3, §4

[11] = system: p-AKT 473; assay: as above; type: cell-based, human
Protocol: as §3
To investigate the effect of A1 on the survival proteins, […] of survival proteins, including p-Erk 44/42, p-AKT 473, Anti BDNF, and p TrkB 816 and p TrKB 515 by western blotting.

[12] = A1 for multiple time spans, corticosterone
[13] = different concentrations of A1, 6 hrs

## C=C(C)[C@@H]1CCC(C)=C[C@H]1c1c(O)cc(CCCCC)c(CN2CCOCC2)c1O [A1, 2′-(morpholin-1-ylmethyl)-cannabidiol]
[1]; 0 hr
  Relative Protein Expression p TrkB 816: 1.012
[1]; 0.5 hr
  Relative Protein Expression p TrkB 816: 1.309
[1]; 1 hr
  Relative Protein Expression p TrkB 816: 10.54
[1]; 2 hr
  Relative Protein Expression p TrkB 816: 16.76
[1]; 4 hr
  Relative Protein Expression p TrkB 816: 23.54
[1]; [12]
  expression of p TrkB 816 (in words): remarkably increased
[2]; 20 μM + Cort. 400 μM, compared with corticosterone treated group, SHSY5Y and N2A
  cell viability (in words): the highest number of viable cells were observed in A1 treated line
[2]; Homo sapiens, SH-SY5Y, test compound 20 μM + Cort. 400 μM, 48 hrs, read-out: % Cell viability ± SD, SHSY5Y
  viability at 20 µM: 97.9 ± 1.31%
[3]
  viability at 20 µM: 97.6 ± 1.97%
[4]; 5 μM
  inhibition at 5 µM: 7.1 ± 0.8%
[4]; 10 μM
  inhibition at 10 µM: 12.3%
[5]
  viability at 48 h, 20 µM: 114 ± 2.28%
[6]; Homo sapiens, SH-SY5Y, 96 h, A1 1.25 μM + Cort 400 μM, 96 hrs
  viability at 1.25 µM: 83.8%
[6]; Homo sapiens, SH-SY5Y, 96 h, A1 2.5 μM + Cort 400 μM, 96 hrs
  viability at 2.5 µM: 93.6%
[6]; Homo sapiens, SH-SY5Y, 96 h, A1 10 μM + Cort 400 μM, 96 hrs
  viability at 10 µM: 113%
[6]; Homo sapiens, SH-SY5Y, 96 h, A1 20 μM + Cort 400 μM, 96 hrs
  viability at 20 µM: 108%
[6]; Homo sapiens, SH-SY5Y, 96 h, A1 40 μM + Cort 400 μM, 96 hrs
  viability at 40 µM: 102%
[6]; in presence of corticosterone
  neuroprotection against corticosterone (in words): substantial level of neuroprotection by significantly lowering the corticosterone cytotoxic activity
[7]; A1 5 μM, 6 hrs
  Relative Protein Expression p TrkB 816: 3.11
[7]; A1 10 μM, 6 hrs
  Relative Protein Expression p TrkB 816: 2.91
[7]; A1 + Cort., 6 hr
  Relative Protein Expression p TrkB 816: 23.0422
[7]; A1/Cort., A1 5 μM, 6 hrs
  Relative Protein Expression p TrkB 816: 1.41
[7]; A1/Cort., A1 10 μM, 6 hrs
  Relative Protein Expression p TrkB 816: 2.89
[7]; [13]
  expression of p TrkB 816 (in words): increased significantly
[8]; A1 10 μM, 6 hrs
  Relative Protein Expression p TrkB 515: 1.75
[8]; A1 + Cort., 6 hr
  Relative Protein Expression p TrkB 515: 6.675
[8]; A1/Cort., A1 5 μM, 6 hrs
  Relative Protein Expression p TrkB 515: 0.07
[8]; A1/Cort., A1 10 μM, 6 hrs
  Relative Protein Expression p TrkB 515: 1.30
[8]; [13]
  expression of p TrkB 515 (in words): increased significantly except for the expression of p-AKT 473 and p TrkB 515
[9]; A1 5 μM, 6 hrs
  Relative Protein Expression Anti BDNF: 0.67
[9]; A1 10 μM, 6 hrs
  Relative Protein Expression Anti BDNF: 1.48
[9]; A1 + Cort., 6 hr
  Relative Protein Expression Anti BDNF: 39.43
[9]; A1/Cort., A1 5 μM, 6 hrs
  Relative Protein Expression Anti BDNF: 0.44
[9]; A1/Cort., A1 10 μM, 6 hrs
  Relative Protein Expression Anti BDNF: 1.34
[9]; [13]
  expression of Anti BDNF (in words): increased significantly
[10]; A1 5 μM
  Relative Protein Expression p ERK 44/42: 4.51
[10]; A1 10 μM
  Relative Protein Expression p ERK 44/42: 8.80
[10]; A1/Cort., A1 5 μM
  Relative Protein Expression p ERK 44/42: 3.70
[10]; A1/Cort., A1 10 μM
  Relative Protein Expression p ERK 44/42: 5.05
[10]; [13]
  expression of p-Erk 44/42 (in words): increased significantly
[11]; A1 5 μM, 6 hrs
  Relative Protein Expression PAKT 473: 0.67
[11]; A1 10 μM, 6 hrs
  Relative Protein Expression PAKT 473: 1.60
[11]; A1 + Cort., 0 hr
  Relative Protein Expression PAKT 473: 1.00
[11]; A1 + Cort., 0.5 hr
  Relative Protein Expression PAKT 473: 11.68
[11]; A1 + Cort., 1 hr
  Relative Protein Expression PAKT 473: 14.78
[11]; A1 + Cort., 2 hr
  Relative Protein Expression PAKT 473: 17.15
[11]; A1 + Cort., 4 hr
  Relative Protein Expression PAKT 473: 26.33
[11]; A1 + Cort., 6 hr
  Relative Protein Expression PAKT 473: 31.80
[11]; A1/Cort., A1 5 μM, 6 hrs
  Relative Protein Expression PAKT 473: 0.60
[11]; A1/Cort., A1 10 μM, 6 hrs
  Relative Protein Expression PAKT 473: 1.35
[11]; [12]
  expression of p-AKT 473 (in words): remarkably increased
